The source of these data is EP4737445A1, “NOVEL SATURATED HETEROCYCLE-SUBSTITUTED HETEROARYL-CARBONOHYDRAZONOYL DICYANIDE COMPOUND AND USE THEREOF” (Korea Institute of Science and Technology, priority 2023, dated 2025).

Each structure is given as a SMILES string.

The target in one data set is T1, Tau (Homo sapiens, UniProt P10636).
T1 construct: BiFC fluorescent-protein fragments (two complementary halves on two tau copies); expressed in transfected cells
Put plainly: Tau aggregation inhibition in Tau-BiFC cell model (Forskolin-induced). Type of data set: cell-based. The procedure: To screen for new tau aggregation inhibitors, a Tau-BiFC cell model that facilitates observation of tau oligomer formation in living cells was used. Tau-BiFC cells were dispensed into a 384-well plate, and the next day, the compounds prepared according to Examples 1 to 46 were treated at concentrations of 1, 3, and 10 µM, respectively, together with Forskolin (treatment concentration 30 µM), which is a compound that induces tau aggregation by activating the tau phosphorylation enzyme PKA. After 48 hours, nuclei within cells were stained using Hoechst (treatment concentration 2 µg/mL), and BiFC fluorescence intensity was automatically quantified using Operetta (Perkin Elmer) to count the stained nuclei in each well from the entire plate. The group treated only with Forskolin, which induces tau aggregation, was set as the reference point with 100% tau aggregation state, and the effect was confirmed by the formula "BiFC fluorescence intensity by the compounds synthesized according to the Examples of the disclosure/(fluorescence intensity of the control group treated only with Forskolin that induces tau aggregation - fluorescence intensity of the untreated control group) × 100". In addition, the degree of cytotoxicity induced by the newly synthesized compounds was also calculated using the formula "(number of stained nuclei in the compound-treated group/number of stained nuclei in the Forskolin-treated group) × 100", with the group treated only with Forskolin as the reference point at 100% viability. From the treatment results, substances that inhibit intracellular tau aggregation were identified through screening from a series of candidates based on the criteria of 70% or more tau aggregation inhibition and 100% cell viability at a compound treatment concentration of 10 µM.
To confirm the tau aggregation inhibitory effect according to the concentration of the compounds screened in Experimental Example 1, the screened compounds were treated to Tau-BiFC cells at concentrations of 0.03, 0.1, 0.3, 1, 3, 10, and 30 µM, respectively, together with Forskolin (treatment concentration 30 µM), which is a tau aggregation-inducing substance. After 48 hours, cell images were examined to analyze the tau aggregation reaction and degree of cytotoxicity. The IC50 and toxicity of the compounds were analyzed by nonlinear regression analysis using Prism software (GraphPad). The calculated results for representative compounds are shown in Table 3 below: Tau aggregation inhibitory effect and cell viability of novel compounds.

In a further data set the target is T2, TDP-43 protein (Homo sapiens, UniProt Q13148).
T2 construct: BiFC fluorescent-protein fragments (two complementary halves); expressed in transfected cells
Put plainly: TDP-43 aggregation inhibition in TDP-43-BiFC cell model (Forskolin-induced). The class given is cell-based. To be noted: read-out: TDP-43 protein aggregation inhibitory effect: Aggregation inhibitory effect (%) (@3 uM). As to the method:
(§1) To screen for new TDP-43 aggregation inhibitors, a TDP-43-BiFC cell model that facilitates observation of TDP-43 aggregate formation in living cells was used. Specifically, TDP-43-BiFC cells were dispensed into a 384-well plate, and the next day, the compounds prepared according to Examples 1 to 46 were treated at concentrations of 3 and 10 µM, respectively, together with Forskolin (treatment concentration 30 µM), which is a compound that induces TDP-43 aggregation by activating the phosphorylation enzyme PKA. After 48 hours, nuclei within cells were stained using Hoechst (treatment concentration 1 µg/mL), and BiFC fluorescence intensity was automatically quantified using Operetta (PerkinElmer) to count the stained nuclei in each well from the entire plate. The group treated only with Forskolin, which induces TDP-43 aggregation, was set as the reference point with 100% TDP-43 aggregation state, and the effect was confirmed by the formula "(BiFC fluorescence intensity by the compounds synthesized according to the Examples of the disclosure - fluorescence intensity of the untreated control group)/(fluorescence intensity of the control group treated only with Forskolin that induces TDP-43 aggregation - fluorescence intensity of the untreated control group) × 100". In addition, the degree of cytotoxicity induced by the newly synthesized compounds was also calculated using the formula "(number of stained nuclei in the compound-treated group/number of stained nuclei in the Forskolin-treated group) × 100", with the group treated only with Forskolin as the reference point at 100% viability. From the treatment results, substances that inhibit intracellular TDP-43 aggregation were identified through screening from a series of candidates based on the criteria of 80% or more TDP-43 aggregation inhibition and 60% cell viability at a compound treatment concentration of 3 µM.
(§2) Furthermore, to confirm the TDP-43 aggregation inhibitory effect according to the concentration of the compounds screened in Experimental Example 3, the screened compounds were treated to […] at concentrations of 0.003, 0.01, 0.03, 0.1, 0.3, 1, 3, and 10 µM, respectively, together with Forskolin (treatment concentration 30 µM), which is a TDP-43 aggregation-inducing substance. After 48 hours, cell images were examined to analyze the TDP-43 aggregation reaction and degree of cytotoxicity. The IC50 and toxicity of the compounds were analyzed by nonlinear regression analysis using Prism software (GraphPad). The calculated results for representative compounds are shown in Table 4 below: TDP-43 protein aggregation inhibitory effect and cell viability of novel compounds.

A further data set deals with TDP-43 BiFC cells. Put plainly: Cell viability (stained nuclei count) in TDP-43-BiFC cells. To be noted: Forskolin-only group = 100%. The class given is cell-based. As to the method: as §1, §2
Another data set addresses T3, CYP3A4 (Homo sapiens, UniProt P08684).
T3 construct: human liver microsomes (0.25 mg/mL); from tissue; host or cells: human liver microsomes
Description: CYP isoenzyme activity inhibition in human liver microsomes, CYP3A4. The class given is in vitro ADME. To be noted: 10 µM compound; human liver microsomes 0.25 mg/mL; relative to control without compound. The procedure: The CYP isoenzyme activity inhibitory effect by the compounds prepared according to Examples 1 to 46 was confirmed. Specifically, human liver microsomes (0.25 mg/mL), 0.1 M phosphate buffer solution (pH 7.4), a substrate drug cocktail of five drug metabolizing enzymes (Phenacetin 50 µM, Diclofenac 10 µM, S-mephenytoin 100 µM, Dextromethorphan 5 µM, and Midazolam 2.5 µM), and the compounds were added at concentrations of 0 or 10 µM, respectively, and pre-incubated at 37°C for 5 minutes, and then NADPH generation system solution was added and incubated at 37°C for an additional 15 minutes. Thereafter, an acetonitrile solution containing an internal standard (Terfenadine) was added to terminate the reaction, and after centrifugation for 5 minutes (14,000 rpm, 4°C), the supernatant was injected into an LC-MS/MS system to simultaneously analyze the metabolites of the substrate drugs, thereby evaluating the drug metabolizing enzyme inhibitory activity.
The metabolites of each CYP isoenzyme marker drug generated through the reaction were analyzed using a Shimadzu Nexera XR system and TSQ vantage (Thermo). A Kinetex C18 (2.1 × 100 mm, 2.6 µm, particle size; Phenomenex, USA) was used as the HPLC column, and (A) distilled water containing 0.1% formic acid and (B) acetonitrile containing 0.1% formic acid were used as mobile phases, and a gradient program as shown in Table 6 below was applied.
The generated metabolites were quantified using MRM (Multiple Reaction Monitoring) quantitative mode, and Xcalibur (version 1.6.1) was used for data analysis. To show the CYP isoenzyme activity inhibitory effect of the novel compounds prepared according to the Examples of the disclosure, the % activity of CYP isoenzymes relative to the control group without compound addition is shown in Table 6 below. Additionally, to confirm the difference in effect according to substituents, Comparative Compounds 1 and 5, which are two compounds that share a similar parent nucleus structure with Compounds 1 to 46 of the disclosure while Cy is substituted with aromatic heteroaryl instead of saturated heterocyclyl, were selected as comparative compounds and their activities are shown together.
(Liver microsomes are vesicles of endoplasmic reticulum, rich in cytochrome P450 enzymes.)

T1 sequence (P10636 1-441 isoform P10636-8): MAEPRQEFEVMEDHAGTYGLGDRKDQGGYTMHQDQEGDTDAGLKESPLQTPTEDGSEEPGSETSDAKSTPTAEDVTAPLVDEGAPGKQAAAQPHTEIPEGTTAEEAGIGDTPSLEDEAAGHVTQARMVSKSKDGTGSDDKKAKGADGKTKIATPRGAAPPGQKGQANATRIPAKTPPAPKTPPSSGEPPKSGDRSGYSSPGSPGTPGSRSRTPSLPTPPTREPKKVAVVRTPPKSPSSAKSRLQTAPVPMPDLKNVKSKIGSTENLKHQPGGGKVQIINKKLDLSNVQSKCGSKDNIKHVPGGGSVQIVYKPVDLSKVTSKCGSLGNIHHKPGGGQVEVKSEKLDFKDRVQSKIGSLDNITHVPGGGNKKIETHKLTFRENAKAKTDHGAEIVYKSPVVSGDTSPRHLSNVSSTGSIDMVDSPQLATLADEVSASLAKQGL
T2 sequence (Q13148 whole entry, the tested form may be a part): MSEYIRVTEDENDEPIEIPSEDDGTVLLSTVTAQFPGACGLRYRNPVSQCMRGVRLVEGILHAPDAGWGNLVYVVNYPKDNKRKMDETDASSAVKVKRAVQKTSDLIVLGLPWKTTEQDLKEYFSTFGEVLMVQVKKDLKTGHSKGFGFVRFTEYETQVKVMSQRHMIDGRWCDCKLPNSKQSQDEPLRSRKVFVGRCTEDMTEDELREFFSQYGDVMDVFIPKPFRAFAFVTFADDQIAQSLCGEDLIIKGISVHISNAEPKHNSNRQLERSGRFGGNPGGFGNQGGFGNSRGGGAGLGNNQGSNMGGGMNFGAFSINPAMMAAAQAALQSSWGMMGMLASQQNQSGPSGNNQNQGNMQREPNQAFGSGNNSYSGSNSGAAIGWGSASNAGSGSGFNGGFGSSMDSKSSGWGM
T3 sequence (P08684 whole entry): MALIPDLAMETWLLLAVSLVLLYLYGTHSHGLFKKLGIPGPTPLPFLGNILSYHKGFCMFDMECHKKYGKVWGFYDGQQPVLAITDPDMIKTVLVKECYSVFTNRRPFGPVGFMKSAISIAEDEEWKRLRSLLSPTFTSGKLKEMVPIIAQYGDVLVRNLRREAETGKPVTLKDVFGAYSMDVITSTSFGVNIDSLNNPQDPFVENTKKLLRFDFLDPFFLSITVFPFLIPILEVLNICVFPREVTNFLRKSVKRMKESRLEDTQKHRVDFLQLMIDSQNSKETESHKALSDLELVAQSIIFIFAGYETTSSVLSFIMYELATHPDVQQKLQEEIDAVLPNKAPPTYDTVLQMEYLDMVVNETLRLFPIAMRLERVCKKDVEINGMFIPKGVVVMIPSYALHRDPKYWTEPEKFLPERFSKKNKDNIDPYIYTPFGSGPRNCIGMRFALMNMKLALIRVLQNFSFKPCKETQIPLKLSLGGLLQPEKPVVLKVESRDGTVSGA

The molecule `N#CC(C#N)=NNc1ccc2sc(N3CCOCC3)nc2c1` [Compound 1, (2-morpholinobenzo[d]thiazol-5-yl)carbonohydrazonoyl dicyanide] yielded an IC50 against Tau of 12 nM. For the same molecule, the inhibition at 3 µM on TDP-43 protein stood at 78.1%. Also, in the data set with TDP-43 BiFC cells, the “Cell viability (%) (@ 3 uM)” value came to 87.5%. In addition, the “CYP3A4 (% activity)” value at CYP3A4 was found to be 95.5 % activity.
In turn, `N#CC(C#N)=NNc1ccc2nc(N3CCOCC3)sc2c1` [Compound 2, (2-morpholinobenzo[d]thiazol-6-yl)carbonohydrazonoyl dicyanide] yielded an IC50 against Tau of 4 nM. Besides, the inhibition at 3 µM on TDP-43 protein was determined as 100%. In the data set on TDP-43 BiFC cells, the “Cell viability (%) (@ 3 uM)” value was determined as 87.5%. For the same molecule, at CYP3A4, the “CYP3A4 (% activity)” value is 95.7 % activity.
In the same order, the values of `N#CC(C#N)=NNc1ccc2oc(N3CCOCC3)nc2c1` [Compound 3, (2-morpholinobenzo[d]oxazol-5-yl)carbonohydrazonoyl dicyanide] are 20 nM, 79.6%, 102.3% and over 100 % activity.
For `N#CC(C#N)=NNc1ccc2nc(N3CCOCC3)oc2c1` [Compound 4, (2-morpholinobenzo[d]oxazol-6-yl)carbonohydrazonoyl dicyanide], the IC50 at Tau was determined as 56 nM. Further, the inhibition at 3 µM at TDP-43 protein stood at 100%. The “Cell viability (%) (@ 3 uM)” value with TDP-43 BiFC cells stood at 104.2%. Besides, the “CYP3A4 (% activity)” value on CYP3A4 was 94 % activity.
On the same counts, the results for `Cn1c(N2CCOCC2)nc2ccc(NN=C(C#N)C#N)cc21` [Compound 5, (1-methyl-2-morpholino-1H-benzo[d]imidazol-6-yl)carbonohydrazonoyl dicyanide] are 32 nM, 94.7%, 109.2% and 86.1 % activity.
As to `Cn1c(N2CCOCC2)nc2cc(NN=C(C#N)C#N)ccc21` [Compound 6, (1-methyl-2-morpholino-1H-benzo[d]imidazol-5-yl)carbonohydrazonoyl dicyanide], on Tau, the IC50 amounted to 24 nM. Also, at TDP-43 protein, the inhibition at 3 µM was determined as 97.4%. The “Cell viability (%) (@ 3 uM)” value with TDP-43 BiFC cells amounted to 98.1%. Further, the “CYP3A4 (% activity)” value on CYP3A4 is 96.7 % activity.
`CN1CCN(c2nc3ccc(NN=C(C#N)C#N)cc3s2)CC1` [Compound 8, (2-(4-methylpiperazin-1-yl)benzo[d]thiazol-6-yl)carbonohydrazonoyl dicyanide]: at Tau, the IC50 was determined as 32 nM. For the same molecule, the inhibition at 3 µM on TDP-43 protein is 100%. Besides, the “Cell viability (%) (@ 3 uM)” value in the data set with TDP-43 BiFC cells turned out to be 83.0%. At CYP3A4, the “CYP3A4 (% activity)” value was determined as 95 % activity.
In the same order, the values of `COC1CCN(c2nc3ccc(NN=C(C#N)C#N)cc3s2)CC1` [Compound 9, (2-(4-methoxypiperidin-1-yl)benzo[d]thiazol-6-yl)carbonohydrazonoyl dicyanide] are 36 nM, 100%, 76.2% and 66.1 % activity.
On the same counts, the results for `CC1CN(c2nc3ccc(NN=C(C#N)C#N)cc3s2)CC(C)O1` (centres unmarked) [Compound 10, (2-(2,6-dimethylmorpholino)benzo[d]thiazol-6-yl)carbonohydrazonoyl dicyanide] are 24 nM, 100%, 83.8% and 74.5 % activity.
In the same order, the values of `N#CC(C#N)=NNc1ccc2nc(N3C4CCC3COC4)sc2c1` [Compound 11, (2-(3-oxa-8-azabicyclo[3.2.1]octan-8-yl)benzo[d]thiazol-6-yl)carbonohydrazonoyl dicyanide] are 32 nM, 100%, 80.9% and 78.4 % activity.
In turn, `CC1CN(c2nc3ccc(NN=C(C#N)C#N)cc3s2)CCO1` (centres unmarked) [Compound 12, (2-(2-methylmorpholino)benzo[d]thiazol-6-yl)carbonohydrazonoyl dicyanide] registered an IC50 against Tau of 32 nM. Further, the inhibition at 3 µM at TDP-43 protein was 100%. The “Cell viability (%) (@ 3 uM)” value in the data set on TDP-43 BiFC cells is recorded as 73.0%. Further, the “CYP3A4 (% activity)” value on CYP3A4 was 78.9 % activity.
In the same order, the values of `CC1COCCN1c1nc2ccc(NN=C(C#N)C#N)cc2s1` (centres unmarked) [Compound 13, (2-(3-methylmorpholino)benzo[d]thiazol-6-yl)carbonohydrazonoyl dicyanide] are 20 nM, 100%, 63.6% and 84.8 % activity.
In the same order, the values of `CN1CCN(c2nc3ccc(NN=C(C#N)C#N)cc3o2)CC1` [Compound 14, (2-(4-methylpiperazin-1-yl)benzo[d]oxazol-6-yl)carbonohydrazonoyl dicyanide] are 48 nM, 100%, 101.4% and 96.8 % activity.
In the same order, the values of `CC1CN(c2nc3ccc(NN=C(C#N)C#N)cc3o2)CCO1` (centres unmarked) [Compound 15, (2-(2-methylmorpholino)benzo[d]oxazol-6-yl)carbonohydrazonoyl dicyanide] are 48 nM, 97.5%, 105.2% and 87.3 % activity.

For orientation: IC50 means the concentration that inhibits the measured activity by half. Higher therefore signals lower potency.
